ChEMBL document CHEMBL4613209, “Quinolone hybrids and their anti-cancer activities: An overview” (Eur J Med Chem, 2019)
≈ marks a conversion by molar mass, not a printed value. One block for each compound: values may come before it.

Key:
[1] = Toxicity in mouse xenografted with human CX-1 cells; conditions: in vivo
[2] = Toxicity in mouse xenografted with human MB-9812 cells
[3] = tested on: NCI-H460; experiment: Growth inhibition of human NCI-H460 cells; assay type: functional; conditions: pooled result: one value given for 3 cell lines, strains, targets or settings
[4] = tested on: A549; experiment: Cytotoxicity against human A549 cells assessed as reduction in cell viability; assay type: functional, cell-based
[5] = tested on: HT-29; experiment: Cytotoxicity against human HT-29 cells assessed as reduction in cell viability; assay type: functional, cell-based
[6] = tested on: P388; experiment: Cytotoxicity against mouse P388 cells assessed as reduction in cell viability; assay type: functional, cell-based
[7] = tested on: P388; experiment: Cytotoxicity against doxorubicin resistant mouse P388 cells assessed as reduction in cell viability; assay type: functional, cell-based
[8] = tested on: B16-F10; experiment: Cytotoxicity against mouse B16F10 cells assessed as reduction in cell viability; assay type: functional, cell-based
[9] = tested on: A549; experiment: Anticancer activity against human A549 cells; assay type: functional, cell-based
[10] = tested on: HT-29; experiment: Anticancer activity against human HT-29 cells; assay type: functional, cell-based
[11] = tested on: HCT-8; experiment: Anticancer activity against human HCT8 cells; assay type: functional, cell-based
[12] = tested on: MCF7; experiment: Anticancer activity against human MCF7 cells; assay type: functional, cell-based
[13] = tested on: B16-F10; experiment: Anticancer activity against mouse B16F10 cells; assay type: functional, cell-based
[14] = tested on: Lewis lung carcinoma cell line; experiment: Anticancer activity against mouse LLC cells; assay type: functional, cell-based
[15] = tested on: P388; experiment: Anticancer activity against mouse P388 cells; assay type: functional, cell-based
[16] = tested on: P388; experiment: Anticancer activity against doxorubicin resistant mouse P388 cells; assay type: functional, cell-based
[17] = tested on: PANC-1; experiment: Antiproliferative activity against human PANC1 cells after 48 hrs by MTT assay; assay type: functional, cell-based; conditions: PANC-1, 48 h
[18] = tested on: HCT-116; experiment: Antiproliferative activity against human HCT116 cells after 48 hrs by MTT assay; assay type: functional, cell-based; conditions: HCT-116, 48 h
[19] = tested on: HeLa; experiment: Antiproliferative activity against human HeLa cells after 48 hrs by MTT assay; assay type: functional, cell-based
[20] = tested on: A549; experiment: Antiproliferative activity against human A549 cells after 48 hrs by MTT assay; assay type: functional, cell-based; conditions: A549, 48 h
[21] = tested on: K562; experiment: Anticancer activity against human K562 cells; assay type: functional, cell-based
[22] = tested on: A549; experiment: Antiproliferative activity against human A549 cells by CCK8 assay; assay type: functional, cell-based
[23] = tested on: HepG2; experiment: Antiproliferative activity against human HepG2 cells by CCK8 assay; assay type: functional, cell-based
[24] = tested on: MCF7; experiment: Antiproliferative activity against human MCF7 cells by CCK8 assay; assay type: functional, cell-based
[25] = tested on: PC-3; experiment: Antiproliferative activity against human PC3 cells by CCK8 assay; assay type: functional, cell-based
[26] = tested on: HeLa; experiment: Antiproliferative activity against human HeLa cells by CCK8 assay; assay type: functional, cell-based
[27] = tested on: MCF-10A; experiment: Antiproliferative activity against human MCF10A cells by CCK8 assay; assay type: cell-based
[28] = molecular target: Histone deacetylase; experiment: Inhibition of HDAC (unknown origin); assay type: protein assay, Homo sapiens
[29] = molecular target: Tubulin; experiment: Inhibition of tubulin polymerization (unknown origin); assay type: protein-complex assay, Homo sapiens
[30] = tested on: SiHa; experiment: Growth inhibition of human SiHa cells after 48 hrs by SRB assay; assay type: functional
[31] = tested on: MDA-MB-231; experiment: Growth inhibition of human MDA-MB-231 cells after 48 hrs by SRB assay; assay type: functional; conditions: MDA-MB-231, 48 h
[32] = tested on: HepG2; experiment: Anticancer activity against human HepG2 cells by MTT assay; assay type: functional, cell-based
[33] = tested on: HT-29; experiment: Anticancer activity against human HT-29 cells by MTT assay; assay type: functional, cell-based
[34] = tested on: HL-60; experiment: Anticancer activity against human HL60 cells by MTT assay; assay type: functional, cell-based

IC50 [17]: > 10000 nM | IC50 [18]: > 10000 nM | IC50 [19]: > 10000 nM | IC50 [20]: > 10000 nM
Compound: O=C(NO)c1cn(C2CC2)c2cc(-n3cc(CN4CCCCC4)nn3)c(F)cc2c1=O

IC50 [21]: 64100 to 198000 nM
Compound: CCOC(=O)c1cn([C@@H]2O[C@H](CO)[C@@H](O)[C@H]2O)c2ccc(Nc3ccccc3)cc2c1=O

IC50 [22]: 300 to 12800 nM | IC50 [23]: 300 to 12800 nM | IC50 [24]: 300 to 12800 nM | IC50 [25]: 300 to 12800 nM | IC50 [26]: 300 to 12800 nM | IC50 [28]: 21 to 850 nM | IC50 [29]: 1790 to 6360 nM
Compound: C[C@H]1COc2c(N3CCN(C)CC3)c(F)cc3c(=O)c(C(=O)OCc4cn(CCCCCCCC(=O)NO)nn4)cn1c23
IC50 [27]: > 100000 nM

GI50 [31]: ≤ 100 nM
Compound: CCn1cc(C(=O)O)c(=O)c2cnc(N3CCN(C(=O)CCSc4nnnn4Cc4ccccc4)CC3)nc21
GI50 [30]: ≤ 100 nM

IC50 [32]: 13100 to 88400 nM | IC50 [33]: 13100 to 88400 nM | IC50 [34]: 13100 to 88400 nM
Compound: CCOC(=O)c1cn(Cc2cn(-c3ccc(C)cc3)nn2)c2ccc(F)cc2c1=O

IC50 [22]: 300 to 12800 nM | IC50 [23]: 300 to 12800 nM | IC50 [24]: 300 to 12800 nM | IC50 [25]: 300 to 12800 nM | IC50 [26]: 300 to 12800 nM | IC50 [28]: 21 to 850 nM | IC50 [29]: 1790 to 6360 nM
Compound: C[C@H]1COc2c(N3CCN(C)CC3)c(F)cc3c(=O)c(C(=O)OCc4cn(CCCCCCC(=O)NO)nn4)cn1c23
IC50 [27]: > 100000 nM

GI50 [31]: ≤ 100 nM
Compound: O=C(O)c1cn(C2CC2)c2cc(N3CCN(C(=O)CCSc4nnnn4Cc4ccccc4)CC3)c(F)cc2c1=O
GI50 [30]: ≤ 100 nM

IC50 [32]: 13100 to 88400 nM | IC50 [33]: 13100 to 88400 nM | IC50 [34]: 13100 to 88400 nM
Compound: CCOC(=O)c1cn(Cc2cn(-c3ccc(Cl)cc3)nn2)c2ccc(Cl)cc2c1=O

IC50 [22]: 300 to 12800 nM | IC50 [23]: 300 to 12800 nM | IC50 [24]: 300 to 12800 nM | IC50 [25]: 300 to 12800 nM | IC50 [26]: 300 to 12800 nM | IC50 [28]: 21 to 850 nM | IC50 [29]: 1790 to 6360 nM
Compound: C[C@H]1COc2c(N3CCN(C)CC3)c(F)cc3c(=O)c(C(=O)OCc4cn(CCCCCC(=O)NO)nn4)cn1c23
IC50 [27]: > 100000 nM

IC50 [9]: 30 to 490 nM | IC50 [10]: 30 to 490 nM | IC50 [11]: 30 to 490 nM | IC50 [12]: 30 to 490 nM | IC50 [13]: 30 to 490 nM | IC50 [14]: 30 to 490 nM | IC50 [15]: 30 to 490 nM | IC50 [16]: 30 to 490 nM
Compound: Cc1ccc(NC2CCN(C3C(F)=Cc4c5n(cc(C(=O)O)c4=O)-c4ccccc4OC53)C2)cc1 (stereo unspecified)
IC50 [4]: 0.011 to 0.59 µg/mL (≈ 0.0232 to 1.25 µM) | IC50 [5]: 0.011 to 0.59 µg/mL (≈ 0.0232 to 1.25 µM) | IC50 [6]: 0.011 to 0.59 µg/mL (≈ 0.0232 to 1.25 µM) | IC50 [7]: 0.011 to 0.59 µg/mL (≈ 0.0232 to 1.25 µM) | IC50 [8]: 0.011 to 0.59 µg/mL (≈ 0.0232 to 1.25 µM)

GI50 [3]: 10700 to 53700 nM
Compound: O=c1[nH]c2ccc(F)cc2c2oc3ccccc3c12

IC50 [9]: 30 to 490 nM | IC50 [10]: 30 to 490 nM | IC50 [11]: 30 to 490 nM | IC50 [12]: 30 to 490 nM | IC50 [13]: 30 to 490 nM | IC50 [14]: 30 to 490 nM | IC50 [15]: 30 to 490 nM | IC50 [16]: 30 to 490 nM
Compound: Cc1cccc(C)c1NC1CCN(C2C(F)=Cc3c4n(cc(C(=O)O)c3=O)-c3ccccc3OC42)C1 (stereo unspecified)
IC50 [4]: 0.011 to 0.59 µg/mL (≈ 0.0226 to 1.21 µM) | IC50 [5]: 0.011 to 0.59 µg/mL (≈ 0.0226 to 1.21 µM) | IC50 [6]: 0.011 to 0.59 µg/mL (≈ 0.0226 to 1.21 µM) | IC50 [7]: 0.011 to 0.59 µg/mL (≈ 0.0226 to 1.21 µM) | IC50 [8]: 0.011 to 0.59 µg/mL (≈ 0.0226 to 1.21 µM)

Continued, compound first:

Compound: CN(Cc1cnc2nc(N)nc(N)c2n1)c1ccc(C(=O)N[C@@H](CCC(=O)O)C(=O)O)cc1 [METHOTREXATE]
LD50 [1]: 5 mg/kg | LD50 [2]: 5 mg/kg

Compound: O=c1[nH]c2ccccc2c2[nH]cc(-c3ccccc3)c12
GI50 [3]: 18200 nM

Compound: NC1CCN(C2C(F)=Cc3c4n(cc(C(=O)O)c3=O)-c3ccccc3OC42)C1 (stereo unspecified)
IC50 [4]: 0.011 to 0.59 µg/mL (≈ 0.0287 to 1.54 µM) | IC50 [5]: 0.011 to 0.59 µg/mL (≈ 0.0287 to 1.54 µM) | IC50 [6]: 0.011 to 0.59 µg/mL (≈ 0.0287 to 1.54 µM) | IC50 [7]: 0.011 to 0.59 µg/mL (≈ 0.0287 to 1.54 µM) | IC50 [8]: 0.011 to 0.59 µg/mL (≈ 0.0287 to 1.54 µM) | IC50 [9]: 30 to 490 nM | IC50 [10]: 30 to 490 nM | IC50 [11]: 30 to 490 nM | IC50 [12]: 30 to 490 nM | IC50 [13]: 30 to 490 nM | IC50 [14]: 30 to 490 nM | IC50 [15]: 30 to 490 nM | IC50 [16]: 30 to 490 nM

Compound: COc1ccc2c(c1)[nH]c(=O)c1c3ccccc3oc21
GI50 [3]: 10700 to 53700 nM

Compound: O=c1[nH]c2ccc(Cl)cc2c2[nH]c3ccccc3c12
GI50 [3]: 19000 nM

Compound: C[C@H]1COc2c(N3CCN(C)CC3)c(F)cc3c(=O)c(C(=O)NCc4cn(CCCCCCC(=O)NO)nn4)cn1c23
IC50 [22]: 300 to 4900 nM | IC50 [23]: 300 to 4900 nM | IC50 [24]: 300 to 4900 nM | IC50 [25]: 300 to 4900 nM | IC50 [26]: 300 to 4900 nM | IC50 [27]: > 100000 nM | IC50 [28]: 21 to 850 nM | IC50 [29]: 1790 to 6360 nM

Compound: O=c1[nH]c2ccccc2c2[nH]c3ccccc3c12
GI50 [3]: 19000 nM

Compound: O=C(O)c1cn2c3c(c1=O)C=C(F)C(N1CCC(Nc4ccccc4)C1)C3Oc1ccccc1-2 (stereo unspecified)
IC50 [4]: 0.011 to 0.59 µg/mL (≈ 0.0239 to 1.28 µM) | IC50 [5]: 0.011 to 0.59 µg/mL (≈ 0.0239 to 1.28 µM) | IC50 [6]: 0.011 to 0.59 µg/mL (≈ 0.0239 to 1.28 µM) | IC50 [7]: 0.011 to 0.59 µg/mL (≈ 0.0239 to 1.28 µM) | IC50 [8]: 0.011 to 0.59 µg/mL (≈ 0.0239 to 1.28 µM) | IC50 [9]: 30 to 490 nM | IC50 [10]: 30 to 490 nM | IC50 [11]: 30 to 490 nM | IC50 [12]: 30 to 490 nM | IC50 [13]: 30 to 490 nM | IC50 [14]: 30 to 490 nM | IC50 [15]: 30 to 490 nM | IC50 [16]: 30 to 490 nM
